Test results: PMC10663516 (Scientific Reports, 2023)

Experiments:
[1] = design: method as in PMID 29241979; conditions: phase 2 MCL study; cited from earlier work
BMX = target: T1, BMX (Homo sapiens, UniProt P51813); test: Millipore Kinase Profiler screening panel, BMX; format: biochemical
T1 construct: purchased EMD Millipore
Procedure: The Kinase Profiler™ screening panel (EMD Millipore, Burlington, MA, USA) was used to test the inhibitory activity of TL-895 against 270 protein kinases. Kinases were incubated with TL-895 (1 µM) for 20 min to 4 h at room temperature, according to standard kinome screen procedures. […]

DB = test: Cell viability, ATPlite; format: cell-based; conditions: Homo sapiens; DB (GCB-DLBCL), 72 h; read-out: Max response (GI %)
Procedure: (§1) The potency of TL-895 effects on cell viability was further examined in vitro in a panel of diffuse large B-cell lymphoma (DLBCL) and MCL cell lines, comprising ten germinal B-cell like subtype (GCB)-DLBCL cell lines, six activated B-cell like (ABC)-DLBCL cell lines, and six MCL cell lines (Horizon Discovery Inc, Cambridge MA, USA). Cells were seeded into 384-well plates (500 cells/well) and incubated (37 °C for 24 h) before treatment with varying concentrations of TL-895 for 72 h. ATP levels were analyzed using the ATPlite Luminescence Assay System (Perkin Elmer, UK). Growth inhibition and maximum response were calculated using the Chalice Analyzer (Horizon Discovery Inc).

DOHH-2 = test: Cell viability, ATPlite; format: cell-based; conditions: Homo sapiens, DOHH-2 (GCB-DLBCL), 72 h
Procedure: as §1

GRANTA-519 = test: Cell viability, ATPlite; format: cell-based; conditions: Homo sapiens; GRANTA-519 (MCL), 72 h; read-out: Max response (GI %)
Procedure: as §1

HT = test: Cell viability, ATPlite; format: cell-based; conditions: Homo sapiens; HT (GCB-DLBCL), 72 h; read-out: Max response (GI %)
Procedure: as §1

HU-DHL-1-epst = test: Cell viability, ATPlite; format: cell-based; conditions: Homo sapiens, HU-DHL-1-epst (GCB-DLBCL), 72 h
Procedure: as §1

JVM-2 = test: Cell viability, ATPlite; format: cell-based; conditions: Homo sapiens, JVM-2 (MCL), 72 h
Procedure: as §1

Jeko-1 = test: Cell viability, ATPlite; format: cell-based; conditions: Homo sapiens; Jeko-1 (MCL), 72 h; read-out: Max response (GI %)
Procedure: as §1

Maver-1 = test: Cell viability, ATPlite; format: cell-based; conditions: Homo sapiens, Maver1, Maver-1 (MCL), 72 h
Procedure: as §1

Mino = test: Cell viability, ATPlite; format: cell-based; conditions: Homo sapiens, Mino (MCL), 72 h
Procedure: as §1

OCI-Ly18 = test: Cell viability, ATPlite; format: cell-based; conditions: Homo sapiens, OCI-Ly18 (GCB-DLBCL), 72 h
Procedure: as §1

OCI-Ly19 = test: Cell viability, ATPlite; format: cell-based; conditions: Homo sapiens; OCI-Ly19 (GCB-DLBCL), 72 h; read-out: Max response (GI %)
Procedure: as §1

Pfeiffer = test: Cell viability, ATPlite; format: cell-based; conditions: Homo sapiens, Pfeiffer (GCB-DLBCL), 72 h
Procedure: as §1

REC-1 = test: Cell viability, ATPlite; format: cell-based; conditions: Homo sapiens, Rec1, REC-1 (MCL), 72 h
Procedure: as §1

SU-DHL-4-epst = test: Cell viability, ATPlite; format: cell-based; conditions: Homo sapiens, SU-DHL-4-epst (GCB-DLBCL), 72 h
Procedure: as §1

SU-DHL-5-epst = test: Cell viability, ATPlite; format: cell-based; conditions: Homo sapiens; SU-DHL-5-epst (GCB-DLBCL), 72 h; read-out: Max response (GI %)
Procedure: as §1

SU-DHL-8-epst = test: Cell viability, ATPlite; format: cell-based; conditions: Homo sapiens, SU-DHL-8-epst (ABC-DLBCL), 72 h
Procedure: as §1

Toledo = test: Cell viability, ATPlite; format: cell-based; conditions: Homo sapiens, Toledo (GCB-DLBCL), 72 h
Procedure: as §1

U-2932 = test: Cell viability, ATPlite; format: cell-based; conditions: Homo sapiens, U2932, U-2932 (ABC-DLBCL), 72 h
Procedure: as §1

GCB-DLBCL cell lines = test: Cell viability, ATPlite, GCB-DLBCL panel; format: cell-based; conditions: Homo sapiens; all GCB-DLBCL cell lines, 72 h; read-out: IC50s in GCB-DLBCL cell lines
Procedure: as §1

[2] = mouse, in vivo, po, 25 mg/kg

T1 sequence (P51813 whole entry): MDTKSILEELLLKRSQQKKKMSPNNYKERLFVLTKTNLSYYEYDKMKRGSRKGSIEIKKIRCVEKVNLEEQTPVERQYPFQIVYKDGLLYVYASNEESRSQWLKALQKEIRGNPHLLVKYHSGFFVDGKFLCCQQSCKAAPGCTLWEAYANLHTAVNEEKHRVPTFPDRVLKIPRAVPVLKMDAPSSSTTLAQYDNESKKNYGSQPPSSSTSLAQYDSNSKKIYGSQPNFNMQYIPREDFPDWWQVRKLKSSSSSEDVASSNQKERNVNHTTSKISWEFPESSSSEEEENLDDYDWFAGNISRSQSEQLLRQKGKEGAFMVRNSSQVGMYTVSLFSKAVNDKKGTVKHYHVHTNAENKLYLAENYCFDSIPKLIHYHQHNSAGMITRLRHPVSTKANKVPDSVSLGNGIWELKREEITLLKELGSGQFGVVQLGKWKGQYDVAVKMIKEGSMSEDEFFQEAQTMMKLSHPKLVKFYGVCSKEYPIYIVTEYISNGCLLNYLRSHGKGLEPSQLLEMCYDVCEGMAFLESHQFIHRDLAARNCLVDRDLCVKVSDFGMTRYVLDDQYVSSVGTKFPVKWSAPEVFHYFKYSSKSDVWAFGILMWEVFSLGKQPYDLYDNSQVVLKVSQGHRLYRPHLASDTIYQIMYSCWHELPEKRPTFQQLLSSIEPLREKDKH

CC#CC(=O)N1CCC[C@H]1c1nc(-c2ccc(C(=O)Nc3ccccn3)cc2)c2c(N)nccn12 [Acalabrutinib]
Adverse event: diarrhea [1]: 31%
Adverse event: fatigue [1]: 27%
Adverse event: headache [1]: 38%
Grade ≥ 3 adverse event: anemia [1]: 9%
Grade ≥ 3 adverse event: neutropenia [1]: 10%
Grade ≥ 3 adverse event: pneumonia [1]: 5%

C=CC(=O)N1CCC(F)(CNc2ncnc(N)c2-c2ccc(Oc3ccccc3)cc2)CC1 [TL-895]
IC50 (BMX): 0.005 µM
Emax (DB): 25%
GI50 (DOHH-2): 9.39 µM
IC50 (DOHH-2): 11.4 µM
Emax (DOHH-2; read-out: Max response (GI %)): 130%
Emax (GRANTA-519): 50%
Emax (HT): 17%
GI50 (HU-DHL-1-epst): 20.8 µM
IC50 (HU-DHL-1-epst): 24.9 µM
Emax (HU-DHL-1-epst; read-out: Max response (GI %)): 73%
GI50 (JVM-2): 6.81 µM
IC50 (JVM-2): 17.9 µM
Emax (JVM-2; read-out: Max response (GI %)): 135%
Emax (Jeko-1): 42%
GI50 (Maver-1): 27.5 µM
Emax (Maver-1; read-out: Max response (GI %)): 53%
GI50 (Mino): 5.58 µM
IC50 (Mino): 14 µM
Emax (Mino; read-out: Max response (GI %)): 88%
GI50 (OCI-Ly18): 18.6 µM
IC50 (OCI-Ly18): 22.3 µM
Emax (OCI-Ly18; read-out: Max response (GI %)): 68%
Emax (OCI-Ly19): 36%
GI50 (Pfeiffer): 19.6 µM
IC50 (Pfeiffer): 21 µM
Emax (Pfeiffer; read-out: Max response (GI %)): 99%
GI50 (REC-1): 4.26 µM
IC50 (REC-1): 13 µM
Emax (REC-1; read-out: Max response (GI %)): 83%
GI50 (SU-DHL-4-epst): 10.6 µM
IC50 (SU-DHL-4-epst): 11.9 µM
Emax (SU-DHL-4-epst; read-out: Max response (GI %)): 94%
Emax (SU-DHL-5-epst): 42%
GI50 (SU-DHL-8-epst): 23 µM
IC50 (SU-DHL-8-epst): 25.7 µM
Emax (SU-DHL-8-epst; read-out: Max response (GI %)): 62%
GI50 (Toledo): 3.84 µM
IC50 (Toledo): 5.18 µM
Emax (Toledo; read-out: Max response (GI %)): 195%
GI50 (U-2932): 1.97 µM
IC50 (U-2932): 6.6 µM
Emax (U-2932; read-out: Max response (GI %)): 105%
IC50 (GCB-DLBCL cell lines): > 5 µM
Exposure relative to that needed for 90–95% target occupancy [2]: 8.5 fold
